Assay [1] is filed under the species Sus scrofa. In words: Inhibition of pig aortic GlcNAc-1P-transferase-mediated […] formation at 50 to 100 ug/ml.
The species named for assay [2] is Sus scrofa. Nature of the assay: Inhibition of pig aortic GlcNAc-1P-transferase-mediated […] formation at 0.5 to 1.5 ug/ml.

The record followed here is ChEMBL document CHEMBL1145665, “Tunicamycins, streptovirudins, and corynetoxins, a special subclass of nucleoside antibiotics” (J Nat Prod, 1983).

Turning to `CCC(C)CCCCCC/C=C/C(=O)N[C@H]1[C@H](O[C@H]2O[C@H](CO)[C@@H](O)[C@H](O)[C@H]2NC(C)=O)O[C@H](C[C@H](O)[C@H]2O[C@@H](N3CCC(=O)NC3=O)[C@H](O)[C@@H]2O)[C@H](O)[C@@H]1O` (stereo not given in full), the inhibition (as a rule, the share of the control response that was lost under treatment) in assay [1] is 50%.

For `CCC(C)CCCCCC/C=C/C(=O)N[C@H]1[C@H](O[C@H]2O[C@H](CO)[C@@H](O)[C@H](O)[C@H]2NC(C)=O)O[C@H](C[C@H](O)[C@H]2O[C@@H](n3ccc(=O)[nH]c3=O)[C@H](O)[C@@H]2O)[C@H](O)[C@@H]1O` (stereo not given in full), the inhibition in assay [2] was 50%.

The compound `CCC(C)CCCCCCCC/C=C/C(=O)N[C@H]1[C@H](O[C@H]2O[C@H](CO)[C@@H](O)[C@H](O)[C@H]2NC(C)=O)O[C@H](C[C@H](O)[C@H]2O[C@@H](n3ccc(=O)[nH]c3=O)[C@H](O)[C@@H]2O)[C@H](O)[C@@H]1O` (stereo not given in full) registered an inhibition in assay [2] of 50%.

Consider `CC(=O)N[C@H]1[C@@H](O[C@@H]2O[C@H](C[C@H](O)[C@H]3O[C@@H](n4ccc(=O)[nH]c4=O)[C@H](O)[C@@H]3O)[C@H](O)[C@H](O)[C@H]2NC(=O)/C=C/CCCCCCCC(C)C)O[C@H](CO)[C@@H](O)[C@@H]1O`, for which the inhibition in assay [2] is 50%.

In turn, `CC(=O)N[C@H]1[C@@H](O[C@@H]2O[C@H](C[C@H](O)[C@H]3O[C@@H](N4CCC(=O)NC4=O)[C@H](O)[C@@H]3O)[C@H](O)[C@H](O)[C@H]2NC(=O)/C=C/CCCCCCCCC(C)C)O[C@H](CO)[C@@H](O)[C@@H]1O` displayed an inhibition in assay [1] of 50%.

In the case of `CC(=O)N[C@H]1[C@@H](O[C@@H]2O[C@H](C[C@H](O)[C@H]3O[C@@H](n4ccc(=O)[nH]c4=O)[C@H](O)[C@@H]3O)[C@H](O)[C@H](O)[C@H]2NC(=O)/C=C/CCCCCCCCC(C)C)O[C@H](CO)[C@@H](O)[C@@H]1O`, the inhibition in assay [2] stood at 50%.

In turn, `CC(=O)N[C@H]1[C@@H](O[C@@H]2O[C@H](C[C@H](O)[C@H]3O[C@@H](n4ccc(=O)[nH]c4=O)[C@H](O)[C@@H]3O)[C@H](O)[C@H](O)[C@H]2NC(=O)/C=C/CCCCCCC(C)C)O[C@H](CO)[C@@H](O)[C@@H]1O` displayed an inhibition in assay [2] of 50%.

The compound `CC(=O)N[C@H]1[C@@H](O[C@@H]2O[C@H](C[C@H](O)[C@H]3O[C@@H](N4CCC(=O)NC4=O)[C@H](O)[C@@H]3O)[C@H](O)[C@H](O)[C@H]2NC(=O)/C=C/CCCCCCCC(C)C)O[C@H](CO)[C@@H](O)[C@@H]1O` displayed an inhibition in assay [1] of 50%.

`CC(=O)N[C@H]1[C@@H](O[C@@H]2O[C@H](C[C@H](O)[C@H]3O[C@@H](N4CCC(=O)NC4=O)[C@H](O)[C@@H]3O)[C@H](O)[C@H](O)[C@H]2NC(=O)/C=C/CCCCCCC(C)C)O[C@H](CO)[C@@H](O)[C@@H]1O` displayed an inhibition in assay [1] of 50%.

The compound `CCC(C)CCCCCCCC/C=C/C(=O)N[C@H]1[C@H](O[C@H]2O[C@H](CO)[C@@H](O)[C@H](O)[C@H]2NC(C)=O)O[C@H](C[C@H](O)[C@H]2O[C@@H](N3CCC(=O)NC3=O)[C@H](O)[C@@H]2O)[C@H](O)[C@@H]1O` (stereo not given in full) registered an inhibition in assay [1] of 50%.
